# Measured values reported in patent US12115178B2, “Acylated active agents and methods of their use for the treatment of autoimmune disorders” (Flagship Pioneering Innovations V, Inc., priority 2018, dated 2024).
# What was measured:
# naïve CD4+ T cells = assay: Human regulatory T cell differentiation assay; format: cell-based; conditions: 6 days
# Procedure: Peripheral blood mononuclear cells (PBMCs) from whole blood donated by health volunteers were separated by Ficoll-Paque gradient centrifugation and naïve CD4^+ T cells were subsequently isolated using magnet beads (EasySep™ Human Naïve CD4^+ T Cell Isolation Kit, Cambridge, MA). For regulatory T cell (Treg) differentiation assay, naïve CD4^+ T cells were cultured (1-10×10^4 cells) in CTS OpTmizer medium for 6 days and stimulated with 5 ng/ml TGF-β, 100 U/ml IL-2, and ImmunoCult™ Human […] T Cell Activator; Stemcell #10990) with/without our Compounds. Cell viability was determined using a viability dye (eBioscience Fixable Viability Dye eFluor 780: ThermoFisher 65-0865-14) at 1:500 dilution. The cells were gated for Treg, defined as Live, CD11c^−, CD14^−, CD19^−, CD8^−, CD4^+, CD3^+, CD25^+, FOXP3^+. Percent (%) Tregs were calculated as percentage of CD4^+, CD25^+, FOXP3^+ cells over total CD4 T cells. Statistical analysis was performed with GraphPad Prism Software Using One-Way ANOVA.
# [1] = Assay 2. Stability in Simulated Intestinal Fluid (SIF); format: in vitro ADME; conditions: SIF pH 6.7 with pancreatin, 1 μM, 37° C.
# In short: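 Compounds at 1 µM (from 1 mM DMSO stock) were incubated at 37 °C with agitation in simulated intestinal fluid: FaSSIF in pH 6.7 phosphate buffer with pancreatin. Aliquots taken from T0 onward were quenched with acetonitrile and analyzed by LC/MS for degradation rate.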
# [2] = tested on: type II collagen arthritis; assay: In vivo rheumatoid arthritis model (semi-established type II collagen arthritis); set-up: species or system Lewis rats; conditions: for Mean Ankle Diameter AUC (mm*day) / Mean Ankle Periosteal Bone width (um) / Mean Knee Inflammation score (0-5) / Mean Terminal hind paw weights / Mean body weight change, day −1 to 21 (%) / Relative Spleen to Body Weight (Mean) / Mean Ankle Bone Resorption score (0-5) / Mean Ankle Cartilage Damage score (0-5) / Mean Ankle Pannus score (0-5) / Mean Ankle Periosteal Bone score (0-5) / Mean Ankle inflammation score (0-5) / Mean Knee Bone Resorption score (0-5) / Mean Knee Cartilage Damage score (0-5) / Mean Knee Pannus score (0-5) / Serum IgG: rats; for Mean Ankle Bone Resorption score (0-5) / Mean Ankle Cartilage Damage score (0-5) / Mean Ankle Pannus score (0-5) / Mean Ankle Periosteal Bone score (0-5) / Mean Ankle inflammation score (0-5) / Mean Knee Bone Resorption score (0-5) / Mean Knee Cartilage Damage score (0-5) / Mean Knee Pannus score (0-5): 0 = normal, 5 = severe; for Serum IgG: terminal serum ELISA for anti-type II collagen antibodies
# Procedure: A study was conducted to determine the efficacy of test articles dosed by the oral (PO) route for inhibition of the inflammation (paw swelling), cartilage destruction, and bone resorption that occurs in semi-established type II collagen arthritis in female Lewis rats. Rats (10 per group) were injected intradermally (ID) with porcine type II collagen to induce arthritis; one group of rats (4 per group) served as vehicle-treated naïve controls. […] Positive controls were treated PO, BID with the reference compound Tofacitinib citrate (10 mg/kg). The rats were euthanized for necropsy on study day 21 (animals #1-5 in each group, animals #1-2 in naïve group) or 22 (animals #6-10 in each group, animals #3-4 in naïve group). Efficacy evaluation was based on animal body weights (Table 9), daily ankle caliper measurements (FIG. 4), ankle diameter expressed as area under the curve (AUC) (Table 10), terminal hind paw weights (Table 11), histopathologic evaluation of hind paws (Ankle Inflammation score: Table 12, Ankle Pannus score: Table 13, Ankle Cartilage Damage score: Table 14, Ankle Bone Resorption score: Table 15, Ankle Periosteal Bone score: Table 16, Ankle Periosteal Bone Width: Table 17) and knees (Knee Inflammation score: Table 18, Knee Pannus score: Table 19, Knee Cartilage Damage score: Table 20, Knee Bone Resorption score: Table 21), and relative spleen to body weight ratio (Table 22). Terminal serum was analyzed by enzyme-linked immunosorbent assay (ELISA) for anti-type II collagen antibodies (IgG) (Table 23). […] Statistics were conducted using ordinary one-way ANOVA with Dunnett's multiple comparison correction in GraphPad Prism.
# [3] = Assay 3. In vitro Colonic Material Stability Assay; format: in vitro ADME; conditions: colonic material slurry, anaerobic, 1 or 10 μM
# [4] = Assay 1. Stability in Simulated Gastric Fluid (SGF); format: in vitro ADME; conditions: SGF pH 1.6 with pepsin, 1 μM, 37° C.
# In short: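 Compound at 1 μM final (from 1 mM DMSO stock) incubated at 37° C in SGF: NaCl medium at pH 1.6 with FaSSIF powder and 0.1 mg/mL pepsin, prepared fresh. Aliquots taken at T0 and regular intervals, quenched with equal volume acetonitrile; LC/MS gives degradation rate.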
Structure (SMILES),Assay 2 (SIF) (% @ Remaining 4 hours) [1],Mean Ankle Diameter AUC (mm*day) ([2]; 500 mg/kg PO BID),Mean Ankle Periosteal Bone width (um) ([2]; 500 mg/kg PO BID),Mean Knee Inflammation score (0-5) ([2]; 500 mg/kg PO BID),Mean Terminal hind paw weights ([2]; 500 mg/kg PO BID) [g],"Mean body weight change, day −1 to 21 (%) ([2]; 500 mg/kg PO BID)",Relative Spleen to Body Weight (Mean) ([2]; 500 mg/kg PO BID),Mean Ankle Bone Resorption score (0-5) ([2]; 500 mg/kg PO BID),Mean Ankle Cartilage Damage score (0-5) ([2]; 500 mg/kg PO BID),Mean Ankle Pannus score (0-5) ([2]; 500 mg/kg PO BID),Mean Ankle Periosteal Bone score (0-5) ([2]; 500 mg/kg PO BID),Mean Ankle inflammation score (0-5) ([2]; 500 mg/kg PO BID),Mean Knee Bone Resorption score (0-5) ([2]; 500 mg/kg PO BID),Mean Knee Cartilage Damage score (0-5) ([2]; 500 mg/kg PO BID),Mean Knee Pannus score (0-5) ([2]; 500 mg/kg PO BID),Serum IgG ([2]; 500 mg/kg PO BID) [µg/mL],Assay 3 (% Remaining at 24 h) [3],further results
"C[C@@H](O)CCO [(R)-1,3-Butanediol]",–,–,–,–,–,–,–,–,–,–,–,–,–,–,–,–,–,Cell viability % DMSO (naïve CD4+ T cells; 100 uM): = (90%> <110%: =); Cell viability % DMSO (naïve CD4+ T cells; 0.5 mM): = (90%> <110%: =)
"CC(=O)O [Acetic acid, acetic acid]",–,–,–,–,–,–,–,–,–,–,–,–,–,–,–,–,–,Cell viability % DMSO (naïve CD4+ T cells; 1 mM): = (90%> <110%: =); Cell viability % DMSO (naïve CD4+ T cells; 3 mM): = (90%> <110%: =)
"CCCC(=O)Oc1cc(OC(=O)CCC)c2c(=O)c(OC(=O)CCC)c(-c3ccc(OC(=O)CCC)c(OC(=O)CCC)c3)oc2c1 [Compound 5, [2-butanoyloxy-4-[3,5,7-tri(butanoyloxy)-4-oxo-chromen-2-yl]phenyl]butanoate]",B (25-75% of the tested compound remaining),93.57,699.30,5.65,2.3994,−10.1,0.2534,3.33,4.45,3.33,3.70,2.3994,2.65,4.00,2.65,5350.41,–,"Mean Ankle Diameter AUC (mm*day) ([2]; 100 mg/kg PO BID): 89.38 mm*day; Mean Ankle Periosteal Bone width (um) ([2]; 100 mg/kg PO BID): 510.30 um; Mean Knee Inflammation score (0-5) ([2]; 100 mg/kg PO BID): 5.23; Mean Terminal hind paw weights ([2]; 100 mg/kg PO BID): 2.3990 g; Mean body weight change, day −1 to 21 (%) ([2]; 100 mg/kg PO BID): −7.1%; Relative Spleen to Body Weight (Mean) ([2]; 100 mg/kg PO BID): 0.2453; Mean Ankle Bone Resorption score (0-5) ([2]; 100 mg/kg PO BID): 2.53; Mean Ankle Cartilage Damage score (0-5) ([2]; 100 mg/kg PO BID): 3.55; Mean Ankle Pannus score (0-5) ([2]; 100 mg/kg PO BID): 2.53; Mean Ankle Periosteal Bone score (0-5) ([2]; 100 mg/kg PO BID): 2.68; Mean Ankle inflammation score (0-5) ([2]; 100 mg/kg PO BID): 2.3990; Mean Knee Bone Resorption score (0-5) ([2]; 100 mg/kg PO BID): 2.08; Mean Knee Cartilage Damage score (0-5) ([2]; 100 mg/kg PO BID): 2.93; Mean Knee Pannus score (0-5) ([2]; 100 mg/kg PO BID): 2.08; Serum IgG ([2]; 100 mg/kg PO BID): 5937.67 µg/mL; effects on spleen weights relative to body weight, ankle diameter AUC, ankle pannus score, ankle bone resorption score, and ankle periosteal bone score ([2]; rat collagen arthritis, PO BID): significant beneficial effects"
"CCCC(=O)Oc1cc(C(=O)O)cc(OC(=O)CCC)c1OC(=O)CCC [Compound 45, 3,4,5-tris(butyryloxy)benzoic acid]",A (<25% of the tested compound remaining),94.20,630.00,5.25,2.3988,−6.3,0.2534,3.48,4.20,3.48,3.38,2.3988,2.40,3.63,2.48,5431.64,A (<25% of the tested compound remaining),–
"CCC(=O)Oc1cc(OC(=O)CC)c2c(c1)O[C@H](c1ccc(OC(=O)CC)c(OC(=O)CC)c1)[C@H](OC(=O)CC)C2 [Compound 194, (2R,3R)-2-[3,4-bis(propanoyloxy)phenyl]-5,7-bis(propanoyloxy)-3,4-dihydro-2H-1-benzopyran-3-yl propanoate]",A (<25% of the tested compound remaining),–,–,–,–,–,–,–,–,–,–,–,–,–,–,–,A (<25% of the tested compound remaining),Assay 1 (SGF) (% Remaining @ 1 hour) [4]: B (25-75% of the tested compound remaining)
